This is an account of results in paper PMC4229968, “The Inhibition of the Components from Shengmai Injection towards UDP-Glucuronosyltransferase” (Evidence-based Complementary and Alternative Medicine : eCAM, 2014).

For one data set, the target named is T1, UGT1A3 (Homo sapiens, UniProt P35503).
T1 construct: purchased BD Gentest Corp. (Woburn, MA, USA); host or cells: baculovirus-infected insect cells
T1 sequence (P35503 29-534): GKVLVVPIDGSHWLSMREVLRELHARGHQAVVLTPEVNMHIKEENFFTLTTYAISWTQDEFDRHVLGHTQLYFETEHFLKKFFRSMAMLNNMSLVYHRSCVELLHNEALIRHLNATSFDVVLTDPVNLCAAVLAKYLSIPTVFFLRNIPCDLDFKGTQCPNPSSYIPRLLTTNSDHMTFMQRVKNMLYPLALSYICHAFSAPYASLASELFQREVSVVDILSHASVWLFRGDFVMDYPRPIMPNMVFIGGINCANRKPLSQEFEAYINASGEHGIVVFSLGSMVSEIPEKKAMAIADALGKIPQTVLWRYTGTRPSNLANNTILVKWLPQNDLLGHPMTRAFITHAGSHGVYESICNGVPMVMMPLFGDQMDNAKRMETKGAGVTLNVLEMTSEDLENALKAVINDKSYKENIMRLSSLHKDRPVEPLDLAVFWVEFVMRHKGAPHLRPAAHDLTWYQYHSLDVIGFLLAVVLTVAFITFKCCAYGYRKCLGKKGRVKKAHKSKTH
The data set is described as follows: Recombinant UGT1A3-catalyzed 4-MU glucuronidation inhibition. The data set is classed as in vitro ADME. To be noted: pH 7.4, probe 4-methylumbelliferone (4-MU), UGT1A3, 100 μM of compound, 4-MU substrate, read-out: residual activity. The source says:
(§1) 4-Methylumbelliferone (4-MU), 4-methylumbelliferone-β-D-glucuronide (4-MUG), Tris-HCl, 7-hydroxycoumarin, and uridine-5′-diphosphoglucuronic acid (UDPGA) (trisodium salt) were purchased from Sigma-Aldrich (St. Louis, MO). Recombinant human UGT isoforms (UGT1A1, UGT1A3, UGT1A4, UGT1A6, UGT1A7, UGT1A8, UGT1A9, UGT1A10, UGT2B4, UGT2B7, and UGT2B15) expressed in baculovirus-infected insect cells were obtained from BD Gentest Corp. (Woburn, MA, USA). Ophiopogonin D (OD), ophiopogonin D′ (OD′), methylophiopogonanone A (MA), methylophiopogonanone B (MB), and ruscorectal (RU) were purchased from Sichuan Weikeqi Biotechnology Company (Chengdu, Sichuan, China). The purity of these compounds was above 95%. All other reagents were of HPLC grade or of the highest grade commercially available.
(§2) 4-MU, the nonspecific probe substrate for all the UGT isoforms except UGT1A4, was used in the present study to initially screen the inhibition potential of maidong's components towards UGT isoforms as previously reported. In brief, the incubation system (total volume = 200 μL) consisted of recombinant UGTs, 5 mM UDPGA, 5 mM MgCl2, 50 mM Tris-HCl (pH = 7.4), and 4-MU in the absence or presence of different concentrations of maidong's components. The compounds were dissolved in DMSO, and the final concentration of DMSO was below 0.5% (v/v). The used incubation time and protein concentration were previously determined to ensure the reaction rate within the linear range. The 4-MU concentration was equal to known K m or S 50 values for each UGT isoform. After 5 min preincubation at 37°C, the incubation reaction was initiated via adding UDPGA to the mixture system. The reactions were quenched by adding 100 μL acetonitrile with 7-hydroxycoumarin (100 μM) as internal standard. Centrifuged at 20000 ×g for 10 min, an aliquot of supernatant was transferred to an autoinjector vial for HPLC analysis. The HPLC system (Shimadzu, Kyoto, Japan) contained a SCL-10A system controller, two LC-10AT pumps, a SIL-10A autoinjector, and a SPD-10AVP UV detector. Chromatographic separation was carried out using a C18 column (4.6 × 200 mm, 5 μm, Kromasil) at a flow rate of 1 mL/min and UV detector at 316 nm. The mobile phase consisted of acetonitrile (A) and H2O containing 0.5% (v/v) formic acid (B). The following gradient condition was used: 0–15 min, 95–40% B; 15–20 min, 10% B; 20–30 min, 95% B.

A further data set deals with T2, UGT1A10 (Homo sapiens, UniProt Q9HAW8).
T2 construct: purchased BD Gentest Corp. (Woburn, MA, USA); host or cells: baculovirus-infected insect cells
T2 sequence (Q9HAW8 26-530): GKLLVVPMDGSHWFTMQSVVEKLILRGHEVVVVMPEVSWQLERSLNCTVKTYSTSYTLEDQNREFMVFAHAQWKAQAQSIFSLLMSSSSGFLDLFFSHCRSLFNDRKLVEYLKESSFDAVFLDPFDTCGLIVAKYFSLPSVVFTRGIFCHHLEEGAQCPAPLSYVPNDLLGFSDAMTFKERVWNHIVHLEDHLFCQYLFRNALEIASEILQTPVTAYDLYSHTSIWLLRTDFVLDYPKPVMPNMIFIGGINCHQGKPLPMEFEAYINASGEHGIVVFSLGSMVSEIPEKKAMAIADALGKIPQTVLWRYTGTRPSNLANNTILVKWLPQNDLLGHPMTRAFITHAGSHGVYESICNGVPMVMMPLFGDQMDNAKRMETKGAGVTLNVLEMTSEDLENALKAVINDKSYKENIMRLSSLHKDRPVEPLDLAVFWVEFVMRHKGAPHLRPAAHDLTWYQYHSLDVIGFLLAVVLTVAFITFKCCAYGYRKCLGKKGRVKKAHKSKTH
In words: Recombinant UGT1A10-catalyzed 4-MU glucuronidation inhibition. The class given is in vitro ADME. To be noted: for activity at 100 µM: UGT1A10, 100 μM of compound, 4-MU substrate, read-out: residual activity.
Excerpt: as §1, §2
To determine the inhibition kinetic type and parameters (K i), the reaction velocity (V) was determined at multiple concentrations of maidong's components and 4-MU (or TFP). Dixon plot and Lineweaver-Burk plot were used to fit the data. The inhibition kinetic type was evaluated through determining the intersection point in the Dixon and Lineweaver-Burk plots.
K m value is the substrate concentration in which the velocity reached half of the maximum velocity (V max) of the reaction. K i value is the inhibition constant.

The mark [1] stands for this setting: human, pH 7.4, probe 4-methylumbelliferone (4-MU).

With `Cc1c(O)c(C)c2c(c1O)C(=O)[C@H](Cc1ccc3c(c1)OCO3)CO2` [MA, methylophiopogonanone A], the activity at 100 µM at UGT1A3 is 35.5 ± 6.1%; at UGT1A10 (setting [1]) it was 70 ± 9.3%.
The like results for `CC1CCC2(OC1)OC1CC3C4CC=C5CC(O)CC(O)C5(C)C4CCC3(C)C1C2C` (stereo not shown) [RU, ruscorectal] were, in that order, 37.2 ± 18.2% and 82 ± 5.2%.
On the same counts, the results for `COc1ccc(C[C@@H]2COc3c(C)c(O)c(C)c(O)c3C2=O)cc1` [MB, methylophiopogonanone B] are 84.2 ± 22.8% and 96.9 ± 7.3%.
For `C[C@@H]1CC[C@@]2(OC1)O[C@H]1C[C@H]3[C@@H]4CC=C5C[C@@H](O[C@@H]6O[C@H](CO)[C@@H](O)[C@H](O[C@@H]7OC[C@@H](O)[C@H](O)[C@H]7O)[C@H]6O[C@@H]6O[C@@H](C)[C@H](O)[C@@H](O)[C@H]6O)CC[C@]5(C)[C@H]4CC[C@]3(C)[C@H]1[C@@H]2C` [OD′, ophiopogonin D′], the activity at 100 µM was 36.5 ± 2.5% at UGT1A3 and 19.8 ± 3.2% at UGT1A10 (setting [1]). In addition, at UGT1A10 (UGT1A10-catalyzed 4-MU glucuronidation, read-out: inhibition kinetic parameter (Ki)), the Ki (in general, the dissociation constant of the complex between target and ligand, obtained from inhibition or displacement) was 9 µM. The inhibition type result at UGT1A10 (UGT1A10, Dixon and Lineweaver-Burk plots) is “noncompetitively inhibited”. Besides, on UGT1A10 (human, pH 7.4, probe 4-methylumbelliferone (4-MU), UGT1A10, at 100 μM, read-out: inhibition percent), the inhibition (as a rule, the drop in the measured response relative to a control, in per cent) at 100 µM was 80.2%.
With `C[C@@H]1CC[C@@]2(OC1)O[C@H]1C[C@H]3[C@@H]4CC=C5C[C@@H](O)C[C@@H](O[C@@H]6O[C@H](C)[C@H](O)[C@H](O[C@@H]7OC[C@@H](O)[C@H](O)[C@H]7O)[C@H]6O[C@@H]6O[C@@H](C)[C@H](O)[C@@H](O)[C@H]6O)[C@]5(C)[C@H]4CC[C@]3(C)[C@H]1[C@@H]2C` [OD, ophiopogonin D], the activity at 100 µM on UGT1A3 came out at 40.7 ± 0.3%; on UGT1A10 (setting [1]) it was 26.5 ± 1.5%.
